Molecules are shown by their SMILES.

Test system in the first data set: not listed separately
Kind of data set: solubility in DMSO (NMR not measured). Format: physicochemical. Particulars: HCl salt.
`COc1cc2nc(N3CCN(c4ncc5c(n4)CNC5=O)CC3)nc(N)c2cc1OC` [Example 22]: the “solubility in DMSO” value was “insolubility”.

A further data set has as its system Mouse. Put plainly: Test 2: acute toxicity, mouse, oral. Format: in vivo, male ddy-mice. Particulars: 1 g/Kg P.O., fourteenth day. The procedure: (§1) The acute toxicity of certain compounds of this invention were studied in the following manner.
(§2) Namely, male ddy-mice of 5 weeks of age and male Wister rats of 8 weeks of age were fasted for 18 hours and used in groups each of which was constituted of 4-5 of mice or rats. The compounds were each dissolved or suspended in a 0.5% methylcellulose solution and administered orally (P.O.). On the fourteenth day after the administration, their toxicity were judged.
(§3) Each numeral set indicates the number of dead animals/the number of teste
(§4) animals. Hyphens (--) indicate that no tests were effected.
In the case of `COc1cc2nc(N3CCN(c4ncc5c(=O)n(C)ccc5n4)CC3)nc(N)c2cc1OC` [Example 4], the “Acute Toxicity, number of dead animals/number of tested animals” value is reported as 0/5.
In the case of `COc1cc2nc(N3CCN(c4ncc5c(n4)CN(C)C5=O)CC3)nc(N)c2cc1OC` [Example 24], the “Acute Toxicity, number of dead animals/number of tested animals” value is given as 0/5.
Same read-out and setting: then `COC(=O)c1cnc(N2CCN(c3nc(N)c4cc(OC)c(OC)cc4n3)CC2)nc1NC(C)C` [Example 62], with 0/5.

The same data set, now with this note: 3 g/Kg P.O., fourteenth day.
Consider `COc1cc2nc(N3CCN(c4ncc5c(=O)n(C)ccc5n4)CC3)nc(N)c2cc1OC` [Example 4], for which the “Acute Toxicity, number of dead animals/number of tested animals” value was 0/5.
Take `COc1cc2nc(N3CCN(c4ncc5c(n4)CN(C)C5=O)CC3)nc(N)c2cc1OC` [Example 24]: the “Acute Toxicity, number of dead animals/number of tested animals” value was 0/5.

Another data set concerns Rat. Kind of data set: Test 2: acute toxicity, rat, oral. The format is in vivo, male Wister rats. Particulars: 1 g/Kg P.O., fourteenth day. The procedure:
as §1, §2, §3, §4
Take `COc1cc2nc(N3CCN(c4ncc5c(=O)n(C)ccc5n4)CC3)nc(N)c2cc1OC` [Example 4]: the “Acute Toxicity, number of dead animals/number of tested animals” value is given as 0/5.
For the compound `COc1cc2nc(N3CCN(c4ncc5c(n4)CN(C)C5=O)CC3)nc(N)c2cc1OC` [Example 24], the “Acute Toxicity, number of dead animals/number of tested animals” value was 0/5.
As to `COC(=O)c1cnc(N2CCN(c3nc(N)c4cc(OC)c(OC)cc4n3)CC2)nc1NC(C)C` [Example 62], the “Acute Toxicity, number of dead animals/number of tested animals” value is listed as 0/5.

The same data set, now with this note: 3 g/Kg P.O., fourteenth day.
Turning to `COc1cc2nc(N3CCN(c4ncc5c(=O)n(C)ccc5n4)CC3)nc(N)c2cc1OC` [Example 4], the “Acute Toxicity, number of dead animals/number of tested animals” value was 0/5.
Regarding `COc1cc2nc(N3CCN(c4ncc5c(n4)CN(C)C5=O)CC3)nc(N)c2cc1OC` [Example 24], the “Acute Toxicity, number of dead animals/number of tested animals” value is listed as 0/5.

A further data set has as its system Spontaneously Hypertensive Rats. Kind of data set: Test 1: antihypertensive effects (systolic tail artery blood pressure) and heart rate in spontaneously hypertensive rats, oral. Format: in vivo, rat (male, SHR). Particulars: Rattus norvegicus; SHR, oral 1 mg/Kg, 1 hour; read-out: Antihypertensive effects, change (%) in blood pressure, 1 hour later. Put shortly:
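Male SHRs aged 20 weeks or older (350-430 g), with systolic pressure of 180 mmHg or higher, were used in groups of 3-4. Compounds in 0.5% methylcellulose were given orally, mostly at 1 mg/Kg. Systolic tail-artery blood pressure and heart rate were measured together as percent change.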
Consider `COc1cc2nc(N3CCN(c4ncc5c(=O)n(C)ccc5n4)CC3)nc(N)c2cc1OC` [Example 4], for which the change in vivo at 1 mg/kg was -4.4%.
Consider `COc1cc2nc(N3CCN(c4ncc5c(n4)CNC5=O)CC3)nc(N)c2cc1OC` [Example 22], for which the change in vivo at 1 mg/kg is -1.5%.
As for `COc1cc2nc(N3CCN(c4ncc5c(n4)CN(C)C5=O)CC3)nc(N)c2cc1OC` [Example 24], the change in vivo at 1 mg/kg was -7.2%.
For `COC(=O)c1cnc(N2CCN(c3nc(N)c4cc(OC)c(OC)cc4n3)CC2)nc1NC(C)C` [Example 62], the change in vivo at 1 mg/kg is -1.4%.

The same data set, now with this note: Rattus norvegicus; SHR, oral 1 mg/Kg, 3 hours; read-out: Antihypertensive effects, change (%) in blood pressure, 3 hours later.
As to `COc1cc2nc(N3CCN(c4ncc5c(=O)n(C)ccc5n4)CC3)nc(N)c2cc1OC` [Example 4], the change in vivo at 1 mg/kg is -22.1%.
As to `COc1cc2nc(N3CCN(c4ncc5c(n4)CNC5=O)CC3)nc(N)c2cc1OC` [Example 22], the change in vivo at 1 mg/kg is -10.1%.
On the same count and under the same terms, then `COc1cc2nc(N3CCN(c4ncc5c(n4)CN(C)C5=O)CC3)nc(N)c2cc1OC` [Example 24], with -24.8%; and `COC(=O)c1cnc(N2CCN(c3nc(N)c4cc(OC)c(OC)cc4n3)CC2)nc1NC(C)C` [Example 62], with -24%.

Still in this data set, the particulars now being: Rattus norvegicus; SHR, oral 1 mg/Kg, 6 hours; read-out: Antihypertensive effects, change (%) in blood pressure, 6 hours later.
For `COc1cc2nc(N3CCN(c4ncc5c(=O)n(C)ccc5n4)CC3)nc(N)c2cc1OC` [Example 4], the change in vivo at 1 mg/kg was -26.5%.
For `COc1cc2nc(N3CCN(c4ncc5c(n4)CNC5=O)CC3)nc(N)c2cc1OC` [Example 22], the change in vivo at 1 mg/kg is -17.1%.
Still for that read-out and setting: the value for `COc1cc2nc(N3CCN(c4ncc5c(n4)CN(C)C5=O)CC3)nc(N)c2cc1OC` [Example 24] was -28.6%; that for `COC(=O)c1cnc(N2CCN(c3nc(N)c4cc(OC)c(OC)cc4n3)CC2)nc1NC(C)C` [Example 62] was -31.3%.

Still in this data set, the particulars now being: Rattus norvegicus; SHR, oral 1 mg/Kg, 24 hours; read-out: Antihypertensive effects, change (%) in blood pressure, 24 hours later.
On to `COc1cc2nc(N3CCN(c4ncc5c(=O)n(C)ccc5n4)CC3)nc(N)c2cc1OC` [Example 4], for which the change in vivo at 1 mg/kg was -16.7%.
Turning to `COc1cc2nc(N3CCN(c4ncc5c(n4)CNC5=O)CC3)nc(N)c2cc1OC` [Example 22], the change in vivo at 1 mg/kg is -4%.
Same read-out and setting: then `COc1cc2nc(N3CCN(c4ncc5c(n4)CN(C)C5=O)CC3)nc(N)c2cc1OC` [Example 24], with -8.7%; and `COC(=O)c1cnc(N2CCN(c3nc(N)c4cc(OC)c(OC)cc4n3)CC2)nc1NC(C)C` [Example 62], with -21.2%.

Staying with this data set, now noted: SHR, oral 1 mg/Kg, maximum value.
Consider `COc1cc2nc(N3CCN(c4ncc5c(=O)n(C)ccc5n4)CC3)nc(N)c2cc1OC` [Example 4], for which the “Change (%) in heart rate” value is “+5.7%”.
Same read-out and setting: then `COc1cc2nc(N3CCN(c4ncc5c(n4)CNC5=O)CC3)nc(N)c2cc1OC` [Example 22], with “+17.7%”.
Turning to `COc1cc2nc(N3CCN(c4ncc5c(n4)CN(C)C5=O)CC3)nc(N)c2cc1OC` [Example 24], the “Change (%) in heart rate” value is listed as “+12.0%”.
On the same count and under the same terms, the value for `COC(=O)c1cnc(N2CCN(c3nc(N)c4cc(OC)c(OC)cc4n3)CC2)nc1NC(C)C` [Example 62] was “+7.6%”.

These data come from patent US4734418A, “Quinazoline compounds and antihypertensives” (priority 1984, dated 1988).
